Results published in US9686985B2, “Fungicide N-cycloalkyl-N-bicyclicmethylene-carboxamide derivatives” (BAYER INTELLECTUAL PROPERTY GMBH, priority 2012, dated 2017).

Columns and labels:
Pyrenophora teres = assay: Example M: in vivo preventive test on Pyrenophora teres (barley); settings: table M, 500 ppm, evaluated 8 days after inoculation
Procedure: (§1) Example M: In Vivo Preventive Test on Pyrenophora teres (Barley) [table] To produce a suitable preparation of active compound, 1 part by weight of active compound or active compound combination is mixed with the stated amounts of solvent and emulsifier, and the concentrate is diluted with water to the desired concentration. To test for preventive activity, young plants are sprayed with the preparation of active compound or active compound combination at the stated rate of application. After the spray coating has been dried, the plants are sprayed with a spore suspension of Pyrenophora teres. The plants remain for 48 hours in an incubation cabinet at approximately 20° C. and a relative atmospheric humidity of approximately 100%. The plants are placed in the greenhouse at a temperature of approximately 20° C. and a relative atmospheric humidity of approximately 80%.

Puccinia triticina = assay: Example O: in vivo preventive test on Puccinia triticina (wheat); settings: table O, 500 ppm, evaluated 8 days after inoculation
Procedure: as §1, with “O:” for “M:”, “Puccinia triticina (Wheat)” for “Pyrenophora teres (Barley)”, “Puccinia triticina.” for “Pyrenophora teres.”

With `CC(C1CCCc2ccccc21)N(C(=O)c1c(C(F)F)nn(C)c1F)C1CC1` (stereo not shown) [I.23] the Efficacy (Pyrenophora teres) was 100% and the Efficacy (Puccinia triticina) was 75%.
In the case of `Cn1nc(C(F)F)c(C(=O)N(CC2CC(C)(C)Oc3ccccc32)C2CC2)c1F` (stereo not shown) [I.33], the Efficacy (Pyrenophora teres) is reported as 100% and the Efficacy (Puccinia triticina) is reported as 100%.
